{"source": "patent US20110077294A1", "about": "“R-(-) / S-(+)-7-[3-N SUBSTITUTED AMINO-2 HYDROXYPROPOXY] FLAVONES” (priority 2006, published 2011)", "format_in_all_cases": "in vivo", "key": {"C57BL/KsBom-db/db mice [1]": {"tested_on": "C57BL/KsBom-db/db mice", "assay": "Blood glucose profile of db/db mice during daily treatment (antihyperglycemic activity)", "protocol": "(§1) C57BL/KsBom-db/db mice (12-18 weeks old), weighing around 35+g bred in the animal house of CDRI, Lucknow, were used in the present experiments. The mice were housed in groups of 3 to 5 (same sex) in a room controlled for temperature (23±2.0 ° C.) and 12/12 hours light/dark cycle (lights on at 6.00 am). Body weight of each animal was measured daily from day 1 to day 10 of the experiment. All animals had free access to fresh water and normal pellet diet except on the day of the postprandial protocol (day 6) and during the overnight fast before the OGTT on day 10. The animals always had access to water during experimental periods. Blood glucose was checked every morning up till day 10. On day 10 an oral glucose tolerance test (OGTT) was performed after an overnight fasting. Blood glucose was measured at −30.0 min and test compounds were administered. The blood glucose was again measured at 0 min just post treatment and at this juncture glucose solution was given at a dose of 3 gm/kg to all the groups including the vehicle treated group. The blood glucose levels were checked at 30 min, 60 min, 90 min and 120 min post glucose administration. The data was analyzed for its significance on Prism software."}, "C57BL/KsBom-db/db mice [2]": {"tested_on": "C57BL/KsBom-db/db mice", "assay": "Serum lipid profile of treated db/db mice (antidyslipidemic activity)", "conditions": "25 mg/kg", "protocol": "as §1"}, "C57BL/KsBom-db/db mice [3]": {"tested_on": "C57BL/KsBom-db/db mice", "assay": "Serum lipid profile of treated db/db mice (antidyslipidemic activity)", "conditions": "db/db mice, test dose 25 mg/kg"}, "C57BL/KsBom-db/db mice [4]": {"tested_on": "C57BL/KsBom-db/db mice", "assay": "Oral glucose tolerance test (OGTT) on day 10 in db/db mice", "conditions": "25 mg/kg", "protocol": "as §1"}}}
{"smiles": "CC(C)(C)NC[C@@H](O)COc1ccc2c(=O)cc(-c3cc(OCc4ccccc4)cc(OCc4ccccc4)c3)oc2c1", "note": "[S-002-853 (R), (R)-(−)-7-(3-tert-butylamino-2-hydroxypropoxy)-3′,5′-dibenzyloxyflavone]", "values": [{"measurement": "antihyperglycemic and antidyslipidemic/antihyperlipidemic activity (in words)", "setting": "C57BL/KsBom-db/db mice [1]; 25 mg/kg", "result": "insignificant antihyperglycemic or antihyperlipidemic effects"}, {"measurement": "blood glucose profile compared to sham treated (in words)", "setting": "C57BL/KsBom-db/db mice [1]; 25 mg/kg", "result": "no significant difference in the blood glucose profile between the two groups at any day"}, {"measurement": "Blood glucose, day 1 post treatment", "setting": "C57BL/KsBom-db/db mice [1]; 25 mg/kg, day 1", "result": "12.0 ± 2.52", "unit": "mM"}, {"measurement": "Blood glucose % change compared to control, day 1", "setting": "C57BL/KsBom-db/db mice [1]; 25 mg/kg, day 1, vs sham", "result": "+1.1%"}, {"measurement": "Blood glucose, day 2 post treatment", "setting": "C57BL/KsBom-db/db mice [1]; 25 mg/kg, day 2", "result": "12.4 ± 2.65", "unit": "mM"}, {"measurement": "Blood glucose % change compared to control, day 2", "setting": "C57BL/KsBom-db/db mice [1]; 25 mg/kg, day 2, vs sham", "result": "−31.9", "unit": "%"}, {"measurement": "Blood glucose, day 3 post treatment", "setting": "C57BL/KsBom-db/db mice [1]; 25 mg/kg, day 3", "result": "10.3 ± 1.33", "unit": "mM"}, {"measurement": "Blood glucose % change compared to control, day 3", "setting": "C57BL/KsBom-db/db mice [1]; 25 mg/kg, day 3, vs sham", "result": "−24.1", "unit": "%"}, {"measurement": "Blood glucose, day 4 post treatment", "setting": "C57BL/KsBom-db/db mice [1]; 25 mg/kg, day 4", "result": "13.3 ± 4.61", "unit": "mM"}, {"measurement": "Blood glucose % change compared to control, day 4", "setting": "C57BL/KsBom-db/db mice [1]; 25 mg/kg, day 4, vs sham", "result": "−18.1", "unit": "%"}, {"measurement": "Blood glucose, day 5 post treatment", "setting": "C57BL/KsBom-db/db mice [1]; 25 mg/kg, day 5", "result": "12.3 ± 4.32", "unit": "mM"}, {"measurement": "Blood glucose % change compared to control, day 5", "setting": "C57BL/KsBom-db/db mice [1]; 25 mg/kg, day 5, vs sham", "result": "−24.0", "unit": "%"}, {"measurement": "Blood glucose, day 6 post treatment", "setting": "C57BL/KsBom-db/db mice [1]; 25 mg/kg, day 6", "result": "12.1 ± 3.82", "unit": "mM"}, {"measurement": "Blood glucose % change compared to control, day 6", "setting": "C57BL/KsBom-db/db mice [1]; 25 mg/kg, day 6, vs sham", "result": "−19.8", "unit": "%"}, {"measurement": "Blood glucose, day 7 post treatment", "setting": "C57BL/KsBom-db/db mice [1]; 25 mg/kg, day 7", "result": "14.5 ± 5.49", "unit": "mM"}, {"measurement": "Blood glucose % change compared to control, day 7", "setting": "C57BL/KsBom-db/db mice [1]; 25 mg/kg, day 7, vs sham", "result": "−31.9", "unit": "%"}, {"measurement": "Blood glucose, day 8 post treatment", "setting": "C57BL/KsBom-db/db mice [1]; 25 mg/kg, day 8", "result": "13.4 ± 4.54", "unit": "mM"}, {"measurement": "Blood glucose % change compared to control, day 8", "setting": "C57BL/KsBom-db/db mice [1]; 25 mg/kg, day 8, vs sham", "result": "−35.4", "unit": "%"}, {"measurement": "Blood glucose, day 9 post treatment", "setting": "C57BL/KsBom-db/db mice [1]; 25 mg/kg, day 9", "result": "13.5 ± 4.66", "unit": "mM"}, {"measurement": "Blood glucose % change compared to control, day 9", "setting": "C57BL/KsBom-db/db mice [1]; 25 mg/kg, day 9, vs sham", "result": "−38.3", "unit": "%"}, {"measurement": "Comparative antihyperglycemic activity: Average Fall", "setting": "C57BL/KsBom-db/db mice [1]; test dose 25 mg/kg, day given in brackets", "result": 38.3, "unit": "%"}, {"measurement": "HDL-cholesterol levels compared to sham treated (in words)", "setting": "C57BL/KsBom-db/db mice [2]", "result": "no significant difference in the HDL-cholesterol levels"}, {"measurement": "Serum lipid profile: Cholesterol", "setting": "C57BL/KsBom-db/db mice [2]", "result": "144.0 ± 7.37", "unit": "mg/dL"}, {"measurement": "Serum lipid profile: HDL-Chol", "setting": "C57BL/KsBom-db/db mice [2]", "result": "58.0 ± 6.24", "unit": "mg/dL"}, {"measurement": "Serum lipid profile: Triglycerides", "setting": "C57BL/KsBom-db/db mice [2]", "result": "132.0 ± 11.5", "unit": "mg/dL"}, {"measurement": "serum cholesterol, triglycerides (lipid profile) compared to sham treated (in words)", "setting": "C57BL/KsBom-db/db mice [2]", "result": "no significant lowering in either the case of serum cholesterol or triglycerides"}, {"measurement": "Cholesterol % change compared to control", "setting": "C57BL/KsBom-db/db mice [2]; vs sham", "result": "−3.72", "unit": "%"}, {"measurement": "HDL-Chol % change compared to control", "setting": "C57BL/KsBom-db/db mice [2]; vs sham", "result": "+8.06%"}, {"measurement": "Triglycerides % change compared to control", "setting": "C57BL/KsBom-db/db mice [2]; vs sham", "result": "−9.72", "unit": "%"}, {"measurement": "Comparative antihyperlipidemic activity: HDL-C", "setting": "C57BL/KsBom-db/db mice [3]", "result": "+8.06^ns"}, {"measurement": "Comparative antihyperlipidemic activity: T-Chol", "setting": "C57BL/KsBom-db/db mice [3]", "result": "−3.72^ns"}, {"measurement": "Comparative antihyperlipidemic activity: TG", "setting": "C57BL/KsBom-db/db mice [3]", "result": "−9.72^ns"}, {"measurement": "oral glucose tolerance compared to sham treated (in words)", "setting": "C57BL/KsBom-db/db mice [4]", "result": "no difference in oral glucose tolerance curve"}, {"measurement": "Blood glucose profile, 0 min post glucose load", "setting": "C57BL/KsBom-db/db mice [4]; OGTT day 10, 0 min", "result": "20.3 ± 4.74", "unit": "mM"}, {"measurement": "Blood glucose % change compared to control, 0 min post glucose load", "setting": "C57BL/KsBom-db/db mice [4]; OGTT day 10, 0 min, vs sham", "result": "−3.30", "unit": "%"}, {"measurement": "Blood glucose profile, 30 min post glucose load", "setting": "C57BL/KsBom-db/db mice [4]; OGTT day 10, 30 min", "result": "34.3 ± 16.9", "unit": "mM"}, {"measurement": "Blood glucose % change compared to control, 30 min post glucose load", "setting": "C57BL/KsBom-db/db mice [4]; OGTT day 10, 30 min, vs sham", "result": "+3.70%"}, {"measurement": "Blood glucose profile, 60 min post glucose load", "setting": "C57BL/KsBom-db/db mice [4]; OGTT day 10, 60 min", "result": "25.9 ± 9.75", "unit": "mM"}, {"measurement": "Blood glucose % change compared to control, 60 min post glucose load", "setting": "C57BL/KsBom-db/db mice [4]; OGTT day 10, 60 min, vs sham", "result": 0.00, "unit": "%"}, {"measurement": "Blood glucose profile, 90 min post glucose load", "setting": "C57BL/KsBom-db/db mice [4]; OGTT day 10, 90 min", "result": "24.5 ± 9.13", "unit": "mM"}, {"measurement": "Blood glucose % change compared to control, 90 min post glucose load", "setting": "C57BL/KsBom-db/db mice [4]; OGTT day 10, 90 min, vs sham", "result": "+17.0%"}, {"measurement": "Blood glucose profile, 120 min post glucose load", "setting": "C57BL/KsBom-db/db mice [4]; OGTT day 10, 120 min", "result": "23.0 ± 10.0", "unit": "mM"}, {"measurement": "Blood glucose % change compared to control, 120 min post glucose load", "setting": "C57BL/KsBom-db/db mice [4]; OGTT day 10, 120 min, vs sham", "result": "+24.9%"}, {"measurement": "Blood glucose profile, −30 min post glucose load", "setting": "C57BL/KsBom-db/db mice [4]; OGTT day 10, −30 min", "result": "13.6 ± 0.46", "unit": "mM"}, {"measurement": "Blood glucose % change compared to control, −30 min post glucose load", "setting": "C57BL/KsBom-db/db mice [4]; OGTT day 10, −30 min, vs sham", "result": 17.4, "unit": "%"}]}
